# In US7964607B2, “Pyrazolo[3,4-d]pyrimidine compounds” (Pfizer Inc., priority 2007, dated 2011):
# Target: T1, human recombinant PDE9 enzyme (Homo sapiens, UniProt O76083)
# T1 construct: made in house; host or cells: SF-9 insect cells
# Test: Phosphodiesterase 9 (PDE9) inhibitory activity, Scintillation Proximity (SPA) assay
# Assay type: biochemical
# Conditions: human recombinant PDE9 from SF-9 cells; 50 nM [3H]cGMP; room temperature, 30 min; additional compounds Ex. 115-228; read-out: G5678A (U):IC50
# Procedure, shortened: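 Scintillation proximity read-out of [3H]cGMP hydrolysis after 30 min at room temperature, with enzyme addition starting the reaction. The enzyme was human recombinant PDE9 expressed in SF-9 cells, titrated to keep substrate turnover at 20% or less. Compound wells held 2% DMSO final, and background was defined with excess PDE inhibitor.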
# T1 sequence (O76083 whole entry): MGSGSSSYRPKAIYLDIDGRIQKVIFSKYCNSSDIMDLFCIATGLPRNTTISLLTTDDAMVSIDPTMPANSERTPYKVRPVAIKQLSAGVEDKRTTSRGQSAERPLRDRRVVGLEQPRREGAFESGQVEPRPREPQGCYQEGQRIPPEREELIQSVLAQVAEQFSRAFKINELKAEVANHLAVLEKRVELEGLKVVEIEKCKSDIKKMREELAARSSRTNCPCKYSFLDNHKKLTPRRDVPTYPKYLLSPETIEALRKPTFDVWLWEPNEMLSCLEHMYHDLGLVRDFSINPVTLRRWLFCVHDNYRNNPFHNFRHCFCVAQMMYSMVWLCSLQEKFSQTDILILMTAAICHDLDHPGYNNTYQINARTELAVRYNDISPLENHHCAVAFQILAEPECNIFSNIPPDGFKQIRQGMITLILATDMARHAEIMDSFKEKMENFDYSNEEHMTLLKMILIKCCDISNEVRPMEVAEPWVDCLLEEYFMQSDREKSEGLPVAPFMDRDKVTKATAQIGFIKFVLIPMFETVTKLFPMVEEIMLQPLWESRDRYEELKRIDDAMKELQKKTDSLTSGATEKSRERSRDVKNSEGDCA
row,IC50 [µM],SMILES
1,0.0434,"Cc1cccc(CN2C[C@@H](C)[C@H](c3nc4c(cnn4C4CCCC4)c(=O)[nH]3)C2)c1 (racemic) [Example 160, 1-cyclopentyl-6-[(3,4-trans)-4-methyl-1-(3-methylbenzyl)pyrrolidin-3-yl]-1,5-dihydro-4H-pyrazolo[3,4-d]pyrimidin-4-one]"
2,0.0404,"C[C@@H]1CN(Cc2ccc(F)c(F)c2)C[C@H]1c1nc2c(cnn2C2CCCC2)c(=O)[nH]1 (racemic) [Example 161, 1-cyclopentyl-6-[(3,4-trans)-1-(3,4-difluorobenzyl)-4-methylpyrrolidin-3-yl]-1,5-dihydro-4H-pyrazolo[3,4-d]pyrimidin-4-one]"
3,0.0601,"Cc1ccc(C)c(CN2C[C@@H](C)[C@H](c3nc4c(cnn4C4CCCC4)c(=O)[nH]3)C2)c1 (racemic) [Example 162, 1-cyclopentyl-6-[(3,4-trans)-1-(2,5-dimethylbenzyl)-4-methylpyrrolidin-3-yl]-1,5-dihydro-4H-pyrazolo[3,4-d]pyrimidin-4-one]"
4,0.0534,"C[C@@H]1CN(Cc2cccc(Cl)c2F)C[C@H]1c1nc2c(cnn2C2CCCC2)c(=O)[nH]1 (racemic) [Example 163, 6-[(3,4-trans)-1-(3-chloro-2-fluorobenzyl)-4-methylpyrrolidin-3-yl]-1-cyclopentyl-1,5-dihydro-4H-pyrazolo[3,4-d]pyrimidin-4-one]"
5,0.0789,"C[C@@H]1CN(Cc2cccc(Cl)c2Cl)C[C@H]1c1nc2c(cnn2C2CCCC2)c(=O)[nH]1 (racemic) [Example 164, 1-cyclopentyl-6-[(3,4-trans)-1-(2,3-dichlorobenzyl)-4-methylpyrrolidin-3-yl]-1,5-dihydro-4H-pyrazolo[3,4-d]pyrimidin-4-one]"
6,0.0683,"Cc1c(F)cccc1CN1C[C@@H](C)[C@H](c2nc3c(cnn3C3CCCC3)c(=O)[nH]2)C1 (racemic) [Example 166, 1-cyclopentyl-6-[(3,4-trans)-1-(3-fluoro-2-methylbenzyl)-4-methylpyrrolidin-3-yl]-1,5-dihydro-4H-pyrazolo[3,4-d]pyrimidin-4-one]"
7,0.0513,"COc1ccncc1CN1C[C@@H](C)[C@H](c2nc3c(cnn3C3CCCC3)c(=O)[nH]2)C1 (racemic) [Example 171, 1-cyclopentyl-6-{(3,4-trans)-1-[(4-methoxypyridin-3-yl)methyl]-4-methylpyrrolidin-3-yl}-1,5-dihydro-4H-pyrazolo[3,4-d]pyrimidin-4-one]"
8,0.134,"CC(C)Oc1ccccc1CN1C[C@@H](C)[C@H](c2nc3c(cnn3C3CCCC3)c(=O)[nH]2)C1 (racemic) [Example 181, 1-cyclopentyl-6-[(3,4-trans)-1-(2-isopropoxybenzyl)-4-methylpyrrolidin-3-yl]-1,5-dihydro-4H-pyrazolo[3,4-d]pyrimidin-4-one]"
9,0.09,"Cc1cc(CN2C[C@@H](C)[C@H](c3nc4c(cnn4C4CCCC4)c(=O)[nH]3)C2)ccc1F (racemic) [Example 184, 1-cyclopentyl-6-[(3,4-trans)-1-(4-fluoro-3-methylbenzyl)-4-methylpyrrolidin-3-yl]-1,5-dihydro-4H-pyrazolo[3,4-d]pyrimidin-4-one]"
10,0.155,"Cc1ccn2c(CN3C[C@@H](C)[C@H](c4nc5c(cnn5C5CCCC5)c(=O)[nH]4)C3)c(C)nc2c1 (racemic) [Example 186, 1-cyclopentyl-6-{(3,4-trans)-1-[(2,7-dimethylimidazo[1,2-a]pyridin-3-yl)methyl]-4-methylpyrrolidin-3-yl}-1,5-dihydro-4H-pyrazolo[3,4-d]pyrimidin-4-one]"

# Continued, compound first:
row,SMILES,IC50 [µM]
1,"C[C@@H]1CN(Cc2ccc(OC(F)F)cc2)C[C@H]1c1nc2c(cnn2C2CCCC2)c(=O)[nH]1 (racemic) [Example 159, 1-cyclopentyl-6-{(3,4-trans)-1-[4-(difluoromethoxy)benzyl]-4-methylpyrrolidin-3-yl}-1,5-dihydro-4H-pyrazolo[3,4-d]pyrimidin-4-one]",0.0599
2,"C[C@@H]1CN(Cc2nccs2)C[C@H]1c1nc2c(cnn2C2CCCC2)c(=O)[nH]1 (racemic) [Example 165, 1-cyclopentyl-6-[(3,4-trans)-4-methyl-1-(1,3-thiazol-2-ylmethyl)pyrrolidin-3-yl]-1,5-dihydro-4H-pyrazolo[3,4-d]pyrimidin-4-one]",0.0542
3,"Cc1ncc(CN2C[C@@H](C)[C@H](c3nc4c(cnn4C4CCCC4)c(=O)[nH]3)C2)cn1 (racemic) [Example 167, 1-cyclopentyl-6-{(3,4-trans)-4-methyl-1-[(2-methylpyrimidin-5-yl)methyl]pyrrolidin-3-yl}-1,5-dihydro-4H-pyrazolo[3,4-d]pyrimidin-4-one]",0.0407
4,"CCc1ncc(CN2C[C@@H](C)[C@H](c3nc4c(cnn4C4CCCC4)c(=O)[nH]3)C2)cn1 (racemic) [Example 168, 1-cyclopentyl-6-{(3,4-trans)-1-[(2-ethylpyrimidin-5-yl)methyl]-4-methylpyrrolidin-3-yl}-1,5-dihydro-4H-pyrazolo[3,4-d]pyrimidin-4-one]",0.0307
5,"CC(C)c1ccc(CN2C[C@@H](C)[C@H](c3nc4c(cnn4C4CCCC4)c(=O)[nH]3)C2)cc1 (racemic) [Example 169, 1-cyclopentyl-6-[(3,4-trans)-1-(4-isopropylbenzyl)-4-methylpyrrolidin-3-yl]-1,5-dihydro-4H-pyrazolo[3,4-d]pyrimidin-4-one]",0.117
6,"CCn1cc(CN2C[C@@H](C)[C@H](c3nc4c(cnn4C4CCCC4)c(=O)[nH]3)C2)cn1 (racemic) [Example 170, 1-cyclopentyl-6-{(3,4-trans)-1-[(1-ethyl-1H-pyrazol-4-yl)methyl]-4-methylpyrrolidin-3-yl}-1,5-dihydro-4H-pyrazolo[3,4-d]pyrimidin-4-one]",0.0746
7,"C[C@@H]1CN(Cc2ccno2)C[C@H]1c1nc2c(cnn2C2CCCC2)c(=O)[nH]1 (racemic) [Example 172, 1-cyclopentyl-6-[(3,4-trans)-1-(isoxazol-5-ylmethyl)-4-methylpyrrolidin-3-yl]-1,5-dihydro-4H-pyrazolo[3,4-d]pyrimidin-4-one]",0.067
8,CCOc1ccc(CN2C[C@@H](C)[C@H](c3nc4c(cnn4C4CCCC4)c(=O)[nH]3)C2)cc1 (racemic) [Example 173],0.064
9,"C[C@@H]1CN(Cc2ccc(C(C)(C)O)nc2)C[C@H]1c1nc2c(cnn2C2CCCC2)c(=O)[nH]1 (racemic) [Example 174, 1-cyclopentyl-6-[(3,4-trans)-1-{[6-(1-hydroxy-1-methylethyl)pyridin-3-yl]methyl}-4-methylpyrrolidin-3-yl]-1,5-dihydro-4H-pyrazolo[3,4-d]pyrimidin-4-one]",0.042
10,"C[C@@H]1CN(Cc2ccc3c(c2)CC(C)(C)O3)C[C@H]1c1nc2c(cnn2C2CCCC2)c(=O)[nH]1 (racemic) [Example 175, 1-cyclopentyl-6-{(3,4-trans)-1-[(2,2-dimethyl-2,3-dihydro-1-benzofuran-5-yl)methyl]-4-methylpyrrolidin-3-yl}-1,5-dihydro-4H-pyrazolo[3,4-d]pyrimidin-4-one]",0.0748
11,"COc1ccc(CN2C[C@@H](C)[C@H](c3nc4c(cnn4C4CCCC4)c(=O)[nH]3)C2)cc1OC (racemic) [Example 176, 1-cyclopentyl-6-[(3,4-trans)-1-(3,4-dimethoxybenzyl)-4-methylpyrrolidin-3-yl]-1,5-dihydro-4H-pyrazolo[3,4-d]pyrimidin-4-one]",0.0271
12,"Cc1cnc(CN2C[C@@H](C)[C@H](c3nc4c(cnn4C4CCCC4)c(=O)[nH]3)C2)cn1 (racemic) [Example 177, 1-cyclopentyl-6-{(3,4-trans)-4-methyl-1-[(5-methylpyrazin-2-yl)methyl]pyrrolidin-3-yl)-1,5-dihydro-4H-pyrazolo[3,4-d]pyrimidin-4-one]",0.0422
13,"C[C@@H]1CN(Cc2cn3ccccc3n2)C[C@H]1c1nc2c(cnn2C2CCCC2)c(=O)[nH]1 (racemic) [Example 178, 1-cyclopentyl-6-[(3,4-trans)-1-(imidazo[1,2-a]pyridin-2-ylmethyl)-4-methylpyrrolidin-3-yl]-1,5-dihydro-4H-pyrazolo[3,4-d]pyrimidin-4-one]",0.0447
14,"C[C@@H]1CN(Cc2coc(-c3ccccc3)n2)C[C@H]1c1nc2c(cnn2C2CCCC2)c(=O)[nH]1 (racemic) [Example 179, 1-cyclopentyl-6-{(3,4-trans)-4-methyl-1-[(2-phenyl-1,3-oxazol-4-yl)methyl]pyrrolidin-3-yl}-1,5-dihydro-4H-pyrazolo[3,4-d]pyrimidin-4-one]",0.0472
15,"C[C@@H]1CN(Cc2cc3ccccc3nn2)C[C@H]1c1nc2c(cnn2C2CCCC2)c(=O)[nH]1 (racemic) [Example 182, 6-[(3,4-trans)-1-(cinnolin-3-ylmethyl)-4-methylpyrrolidin-3-yl]-1-cyclopentyl-1,5-dihydro-4H-pyrazalo[3,4-d]pyrimidin-4-one]",0.0225
16,"C[C@@H]1CN(Cc2cccc(OC(F)F)c2)C[C@H]1c1nc2c(cnn2C2CCCC2)c(=O)[nH]1 (racemic) [Example 183, 1-cyclopentyl-6-{(3,4-trans)-1-[3-(difluoromethoxy)benzyl]-4-methylpyrrolidin-3-yl}-1,5-dihydro-4H-pyrazolo[3,4-d]pyrimidin-4-one]",0.0298
17,"C[C@@H]1CN(Cc2ccc(-n3cccn3)cc2)C[C@H]1c1nc2c(cnn2C2CCCC2)c(=O)[nH]1 (racemic) [Example 185, 1-cyclopentyl-6-{(3,4-trans)-4-methyl-1-[4-(1H-pyrazol-1-yl)benzyl]pyrrolidin-3-yl}-1,5-dihydro-4H-pyrazolo[3,4-d]pyrimidin-4-one]",0.0335
18,"C[C@@H]1CN(Cc2cc(Cl)cc(Cl)c2)C[C@H]1c1nc2c(cnn2C2CCCC2)c(=O)[nH]1 (racemic) [Example 187, 1-cyclopentyl-6-[(3,4-trans)-1-(3,5-dichlorobenzyl)-4-methylpyrrolidin-3-yl]-1,5-dihydro-4H-pyrazolo[3,4-d]pyrimidin-4-one]",0.0709
